Results published in patent US20080058324A1, “Alpha-Keto Carbonyl Calpain Inhibitors” (SANTHERA PHARMACEUTICALS (SCHWEIZ) AG, priority 2004, published 2008).

Key:
[1] = biological target: T1, human μ-calpain (Homo sapiens, UniProt P07384); assay: Enzymatic Calpain Inhibition Assay; assay type: biochemical; conditions: read-out: Calp I IC50
T1 construct: purchased Calbiochem
T1 sequence (P07384 1-714): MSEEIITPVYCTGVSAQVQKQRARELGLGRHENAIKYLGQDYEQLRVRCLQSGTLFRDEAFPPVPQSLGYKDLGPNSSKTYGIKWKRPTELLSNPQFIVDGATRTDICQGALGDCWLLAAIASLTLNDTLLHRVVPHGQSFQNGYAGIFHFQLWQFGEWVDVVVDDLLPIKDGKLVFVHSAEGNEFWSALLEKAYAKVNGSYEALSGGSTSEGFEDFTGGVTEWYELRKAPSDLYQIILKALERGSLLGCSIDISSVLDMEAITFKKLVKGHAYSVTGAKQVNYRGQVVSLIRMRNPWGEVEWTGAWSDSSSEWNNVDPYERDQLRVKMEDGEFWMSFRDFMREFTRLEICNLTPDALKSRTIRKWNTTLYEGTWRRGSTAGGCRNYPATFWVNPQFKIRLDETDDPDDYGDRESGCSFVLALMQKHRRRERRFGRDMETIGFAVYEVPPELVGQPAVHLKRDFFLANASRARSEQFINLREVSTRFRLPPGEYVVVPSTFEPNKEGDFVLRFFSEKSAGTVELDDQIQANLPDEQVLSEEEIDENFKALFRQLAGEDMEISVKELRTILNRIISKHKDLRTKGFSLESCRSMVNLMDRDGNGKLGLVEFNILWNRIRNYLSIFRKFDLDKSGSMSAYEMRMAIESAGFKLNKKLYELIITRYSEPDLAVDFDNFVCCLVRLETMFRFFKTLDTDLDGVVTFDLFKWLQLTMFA
T1 sequence (P04632 1-268 partner): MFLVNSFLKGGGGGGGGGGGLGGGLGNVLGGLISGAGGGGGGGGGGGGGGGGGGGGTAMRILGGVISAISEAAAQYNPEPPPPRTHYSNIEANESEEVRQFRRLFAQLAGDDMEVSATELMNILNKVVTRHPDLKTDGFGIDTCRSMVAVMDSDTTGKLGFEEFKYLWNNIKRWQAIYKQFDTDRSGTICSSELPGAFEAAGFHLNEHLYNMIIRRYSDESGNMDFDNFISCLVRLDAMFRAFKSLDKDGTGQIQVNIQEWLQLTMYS
Method: The Ki value was also determined in some cases. These criteria were used to measure the inhibitory effect of the compounds (I) on calpain I, calpain II and cathepsin B.
The inhibitory properties of calpain inhibitors are tested in 100 μl of a buffer containing 100 mM imidazole pH 7.5, 5 mM L-Cystein-HCl, 5 mM CaCl2, 250 μM of the calpain fluorogenic substrate Suc-Leu-Tyr-AMC (Sigma) (Sasaki et al., J. Biol. Chem., 1984, 259, 12489-12949) dissolved in 2.5 μl DMSO and 0.5 μg of human μ-calpain (Calbiochem). The inhibitors dissolved in 1 μl DMSO are added to the reaction buffer. The fluorescence of the cleavage product 7-amino-4-methylcoumarin (AMC) is followed in a SPECTRAmax GEMINI XS (Molecular Device) fluorimeter at λex=360 nm and λem=440 nm at 30° C. during 30 min at intervals of 30 sec in 96-well plates (Greiner). The initial reaction velocity at different inhibitor concentrations is plotted against the inhibitor concentration and the IC50 values determined graphically.

[2] = system: utrophin expression in human DMD myotubes; assay: Utrophin Expression Assay in Human Myotubes; assay type: cell-based; conditions: 50 nM test compound
Method: Utrophin induction was determined by a method which was similar to a method of I. Courdier-Fruh et al., Neuromuscular Disord., 2002, 12, S95-S104.
Primary human muscle cell cultures were prepared from muscle biopsies taken during orthopedic surgery from Duchenne patients (provided by the Association Francaise contre les Myopathies). Cultures were prepared and maintained according to standard protocols. Induction of utrophin expression in human DMD myotubes was assayed at 50 nM or 500 nM of test compound added in differentiation medium. Normalized utrophin protein levels are determined after 5-6 d of incubation by cell-based ELISA with a mouse monoclonal antibody to the aminoterminal portion of utrophin (NCL-DRP2, Novocastra Laboratories). For calibration, the cell density and differentiation was determined by absorbance measurements of the total dehydrogenase enzyme activity in each well using the colorimetric CellTiter 96®AQ One Solution Reagent Proliferation Assay (Promega) according to the manufacturer's recommendation. […] Utrophin protein levels were determined immunologically with utrophin-specific primary antibody and with anappropriate peroxidase-coupled secondary antibody (Jackson ImmunoResearch Laboratories) using QuantaBlu™ Fluorogenic Peroxidase Substrate Kit (Pierce) for detection. […] The primary readout of this signal is presented in arbitrary units. […]

Row | Compound | IC50 [1] [nM] | UTR Induction @50 nM [2] [%]
1 | CCNC(=O)C(=O)[C@H](Cc1ccc(Cl)cc1)NC(=O)[C@@H](NC(=O)[C@H](Cc1ccccc1)NC(=O)CCCCc1cccs1)C(C)C [Example 1] | 45 | –
2 | CCNC(=O)C(=O)C(Cc1ccc(Cl)cc1)NC(=O)C(NC(=O)C(Cc1cccc2ccccc12)NC(=O)CCCCc1cccs1)C(C)C (centres unmarked) [Example 22] | 300 | 117
3 | CCNC(=O)C(=O)C(Cc1ccc(OC)cc1)NC(=O)C(NC(=O)C(CCc1ccccc1)NC(=O)CCc1cccs1)C(C)C (centres unmarked) [Example 520] | 15 | 134
